IC50 data for 25 compounds are collected here from US11174251B2, “Compositions and methods for inhibition of the JAK pathway” (Rigel Pharmaceuticals, Inc., priority 2010, dated 2021).

Structures are written as SMILES. Structures can show the parent of a compound that is named as a salt.

For orientation: IC50 means the concentration at which inhibition is half-maximal.

This test has as its target T1, JAK3 (Homo sapiens, UniProt P52333).
T1 construct: The Ramos B-cell line was acquired from ATCC (ATCC Catalog No. CRL-1596); host or cells: Ramos B-cell line (human)
T1 sequence (P52333 1-1124): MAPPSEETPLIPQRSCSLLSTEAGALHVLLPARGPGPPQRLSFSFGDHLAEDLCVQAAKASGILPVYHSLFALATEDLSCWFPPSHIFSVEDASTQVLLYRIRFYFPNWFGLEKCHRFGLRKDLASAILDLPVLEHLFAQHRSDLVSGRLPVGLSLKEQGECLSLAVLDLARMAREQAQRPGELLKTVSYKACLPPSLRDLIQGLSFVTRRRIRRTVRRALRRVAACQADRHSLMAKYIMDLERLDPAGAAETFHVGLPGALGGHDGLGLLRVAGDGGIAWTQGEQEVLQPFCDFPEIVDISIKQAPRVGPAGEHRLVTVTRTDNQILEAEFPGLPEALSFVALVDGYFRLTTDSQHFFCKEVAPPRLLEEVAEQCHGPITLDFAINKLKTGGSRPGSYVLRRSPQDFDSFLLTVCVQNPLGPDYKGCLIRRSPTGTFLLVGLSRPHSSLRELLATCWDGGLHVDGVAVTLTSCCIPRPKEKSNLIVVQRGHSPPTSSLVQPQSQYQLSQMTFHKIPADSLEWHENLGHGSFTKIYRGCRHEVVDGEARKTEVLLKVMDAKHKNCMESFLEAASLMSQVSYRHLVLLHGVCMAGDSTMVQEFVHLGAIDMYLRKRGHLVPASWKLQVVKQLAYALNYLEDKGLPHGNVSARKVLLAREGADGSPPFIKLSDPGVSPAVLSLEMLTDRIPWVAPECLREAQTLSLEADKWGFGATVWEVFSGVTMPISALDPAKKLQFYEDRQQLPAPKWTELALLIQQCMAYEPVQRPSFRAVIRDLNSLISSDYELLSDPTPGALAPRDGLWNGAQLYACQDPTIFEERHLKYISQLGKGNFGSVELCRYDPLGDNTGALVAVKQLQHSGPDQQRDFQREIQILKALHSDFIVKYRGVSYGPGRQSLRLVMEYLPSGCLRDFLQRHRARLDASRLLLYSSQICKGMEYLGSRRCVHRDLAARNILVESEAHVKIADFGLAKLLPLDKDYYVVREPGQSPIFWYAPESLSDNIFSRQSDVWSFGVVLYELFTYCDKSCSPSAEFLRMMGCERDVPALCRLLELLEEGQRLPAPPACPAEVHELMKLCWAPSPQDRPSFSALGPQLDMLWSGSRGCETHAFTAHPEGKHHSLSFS
Put plainly: Assay for CD23 expression on Ramos B-cells stimulated by IL-4 (Table IV: ability to inhibit JAK3 activity). It is filed as cell-based. The conditions noted are these: tested under conditions described in Example 3 (so in the source). A digest of the protocol:
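Human Ramos B cells in RPMI with 5% serum, pre-incubated 1 h at 37 °C with compound or DMSO, then stimulated with IL-4 (final 50 units/mL) for 20–24 h. Surface CD23 upregulation measured by FACS staining as readout of JAK1/JAK3–Stat-6 signalling.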
Regarding `CC(NC1CC1)c1ccc(Nc2ncc(F)c(Nc3ccc4oc(=O)[nH]c4c3)n2)cc1` (stereo not shown) [Compound I-158, 5-(2-(4-(1-(cyclopropylamino)ethyl)phenylamino)-5-fluoropyrimidin-4-ylamino)benzo[d]oxazol-2(3H)-one formate salt], the IC50 is under 0.5 µM.
In the case of `O=C(NC1CCC1)c1ccc(Nc2ncc(F)c(Nc3ccc4oc(=O)[nH]c4c3)n2)cc1` [Compound I-159, N-cyclobutyl-4-(5-fluoro-4-(2-oxo-2,3-dihydrobenzo[d]oxazol-5-ylamino)pyrimidin-2-ylamino)benzamide formate salt], the IC50 was under 0.5 µM.
Turning to `CCCNC(=O)c1ccc(Nc2ncc(F)c(Nc3ccc4oc(=O)[nH]c4c3)n2)cc1` [Compound I-160, 4-(5-fluoro-4-(2-oxo-2,3-dihydrobenzo[d]oxazol-5-ylamino)pyrimidin-2-ylamino)-N-propylbenzamide formate salt], the IC50 is under 0.5 µM.
The compound `O=C(NC1CC1)c1ccc(Nc2ncc(F)c(Nc3ccc4oc(=O)[nH]c4c3)n2)cc1` [Compound I-161, N-cyclopropyl-4-(5-fluoro-4-(2-oxo-2,3-dihydrobenzo[d]oxazol-5-ylamino)pyrimidin-2-ylamino)benzamide formate salt] yielded an IC50 of under 0.5 µM.
The result for `CCNC(=O)c1ccc(Nc2ncc(F)c(Nc3ccc4oc(=O)[nH]c4c3)n2)cc1` [Compound I-162, N-ethyl-4-(5-fluoro-4-(2-oxo-2,3-dihydrobenzo[d]oxazol-5-ylamino)pyrimidin-2-ylamino)benzamide formate salt] reads under 0.5 µM; that for `CC(C)NC(=O)c1ccc(Nc2ncc(F)c(Nc3ccc4oc(=O)[nH]c4c3)n2)cc1` [Compound I-163, 4-(5-fluoro-4-(2-oxo-2,3-dihydrobenzo[d]oxazol-5-ylamino)pyrimidin-2-ylamino)-N-isopropylbenzamide formate salt], under 0.5 µM; that for `COc1cc(Nc2ncc(F)c(Nc3ccc4oc(=O)[nH]c4c3)n2)ccc1C(=O)NC1CCC1` [Compound I-164, N-cyclobutyl-4-(5-fluoro-4-(2-oxo-2,3-dihydrobenzo[d]oxazol-5-ylamino)pyrimidin-2-ylamino)-2-methoxybenzamide formate salt], under 0.5 µM.
To `O=C(NC1CC1)c1ccc(Nc2ncc(F)c(Nc3ccc4oc(=O)[nH]c4c3)n2)cc1C(F)(F)F` [Compound I-165, N-cyclopropyl-4-(5-fluoro-4-(2-oxo-2,3-dihydrobenzo[d]oxazol-5-ylamino)pyrimidin-2-ylamino)-2-(trifluoromethyl)benzamide formate salt] belongs under 0.5 µM.
To `O=C(Nc1ccccc1)c1ccc(Nc2ncc(F)c(Nc3ccc4oc(=O)[nH]c4c3)n2)cc1C(F)(F)F` [Compound I-166, 4-(5-fluoro-4-(2-oxo-2,3-dihydrobenzo[d]oxazol-5-ylamino)pyrimidin-2-ylamino)-N-phenyl-2-(trifluoromethyl)benzamide formate salt] belongs under 0.5 µM.
`Cc1ccc(Nc2ncc(F)c(Nc3ccc4oc(=O)[nH]c4c3)n2)cc1S(C)(=O)=O` [Compound I-167, 5-(2-(4-methyl-3-(methylsulfonyl)phenylamino)-5-fluoropyrimidin-4-ylamino)benzo[d]oxazol-2(3H)-one trifluoroacetate salt] returned a concentration for half-maximal inhibition (IC50) of under 0.5 µM.
`CS(=O)(=O)c1cc(Nc2ncc(F)c(Nc3ccc4oc(=O)[nH]c4c3)n2)ccc1F` [Compound I-168, 5-(2-(4-fluoro-3-(methylsulfonyl)phenylamino)-5-fluoropyrimidin-4-ylamino)benzo[d]oxazol-2(3H)-one trifluoroacetate salt] had an IC50 of under 0.5 µM.
To `O=c1[nH]c2cc(Nc3nc(Nc4cc(F)cc(N5CCOCC5)c4)ncc3F)ccc2o1` [Compound I-169, 5-(2-(3-fluoro-5-morpholinophenylamino)-5-fluoropyrimidin-4-ylamino)benzo[d]oxazol-2(3H)-one ditrifluoroacetate salt] belongs under 0.5 µM; to `CN1CCN(c2cc(F)cc(Nc3ncc(F)c(Nc4ccc5oc(=O)[nH]c5c4)n3)c2)CC1` [Compound I-170, 5-(2-(3-fluoro-5-(4-methylpiperazin-1-yl)phenylamino)-5-fluoropyrimidin-4-ylamino)benzo[d]oxazol-2(3H)-one ditrifluoroacetate salt], under 0.5 µM; to `Cc1cc(Nc2nc(Nc3cccc(S(N)(=O)=O)c3)ncc2F)cc2[nH]c(=O)oc12` [Compound I-171, 3-(5-fluoro-4-(7-methyl-2-oxo-2,3-dihydrobenzo[d]oxazol-5-ylamino)pyrimidin-2-ylamino)benzenesulfonamide trifluoroacetate salt], under 0.5 µM.
For `Cc1cc(Nc2nc(Nc3cccc(S(C)(=O)=O)c3)ncc2F)cc2[nH]c(=O)oc12` [Compound I-172, 5-(2-(3-(methylsulfonyl)phenylamino)-5-fluoropyrimidin-4-ylamino)-7-methylbenzo[d]oxazol-2(3H)-one trifluoroacetate salt], the concentration for half-maximal inhibition (IC50) is under 0.5 µM.
The result for `Cc1cc(Nc2nc(Nc3ccc(F)c(S(C)(=O)=O)c3)ncc2F)cc2[nH]c(=O)oc12` [Compound I-173, 5-(2-(4-fluoro-3-(methylsulfonyl)phenylamino)-5-fluoropyrimidin-4-ylamino)-7-methylbenzo[d]oxazol-2(3H)-one trifluoroacetate salt] reads under 0.5 µM; that for `NS(=O)(=O)c1cccc(Nc2ncc(F)c(Nc3cc(F)c4oc(=O)[nH]c4c3)n2)c1` [Compound I-174, 3-(5-fluoro-4-(7-fluoro-2-oxo-2,3-dihydrobenzo[d]oxazol-5-ylamino)pyrimidin-2-ylamino)benzenesulfonamide trifluoroacetate salt], under 0.5 µM.
To `[2H]C([2H])([2H])Oc1cc(C)cc(Nc2ncc(F)c(Nc3ccc4oc(=O)[nH]c4c3)n2)c1` [Compound I-175, 5-(5-fluoro-2-(3-d3-methoxy-5-methylphenylamino)pyrimidin-4-ylamino)benzo[d]oxazol-2(3H)-one trifluoroacetate salt] belongs under 0.5 µM; to `COc1cc(Nc2ncc(F)c(Nc3cc(C)c4oc(=O)[nH]c4c3)n2)cc(C(F)(F)F)c1` [Compound I-176, 5-(2-(3-(trifluoromethyl)-5-methoxyphenylamino)-5-fluoropyrimidin-4-ylamino)-7-methylbenzo[d]oxazol-2(3H)-one trifluoroacetate salt], over 10 µM; to `COc1cc(C)cc(Nc2ncc(F)c(Nc3cc(C)c4oc(=O)[nH]c4c3)n2)c1` [Compound I-177, 5-(2-(3-methoxy-5-methylphenylamino)-5-fluoropyrimidin-4-ylamino)-7-methylbenzo[d]oxazol-2(3H)-one trifluoroacetate salt], over 10 µM.
To `COc1ccc(Nc2ncc(F)c(Nc3cc(C)c4oc(=O)[nH]c4c3)n2)cc1C` [Compound I-178, 5-(2-(4-methoxy-3-methylphenylamino)-5-fluoropyrimidin-4-ylamino)-7-methylbenzo[d]oxazol-2(3H)-one trifluoroacetate salt] belongs under 0.5 µM; to `COc1cc(C)cc(Nc2ncc(F)c(Nc3cc(F)c4oc(=O)[nH]c4c3)n2)c1` [Compound I-179, 5-(2-(3-methoxy-5-methylphenylamino)-5-fluoropyrimidin-4-ylamino)-7-fluorobenzo[d]oxazol-2(3H)-one trifluoroacetate salt], over 10 µM.
`COc1ccc(Nc2ncc(F)c(Nc3cc(F)c4oc(=O)[nH]c4c3)n2)cc1C` [Compound I-180, 5-(2-(4-methoxy-3-methylphenylamino)-5-fluoropyrimidin-4-ylamino)-7-fluorobenzo[d]oxazol-2(3H)-one trifluoroacetate salt]: the IC50 was under 0.5 µM.
To `COc1cc(Nc2ncc(F)c(Nc3ccc4oc(=O)[nH]c4c3)n2)cc(C)c1F` [Compound I-181, 5-(2-(4-fluoro-3-methoxy-5-methylphenylamino)-5-fluoropyrimidin-4-ylamino)benzo[d]oxazol-2(3H)-one trifluoroacetate salt] belongs under 0.5 µM; to `COc1cc(Nc2ncc(F)c(Nc3ccc4oc(=O)[nH]c4c3)n2)cc(C)c1OC` [Compound I-182, 5-(2-(3,4-dimethoxy-5-methylphenylamino)-5-fluoropyrimidin-4-ylamino)benzo[d]oxazol-2(3H)-one trifluoroacetate salt], under 0.5 µM.
